Test results taken from patent US11111264B2, “Morphic forms of 4-amino-7-(3,4-dihydroxy-5-(hydroxymethyl)tetrahydrofuran-2-yl)-2-methyl-7H-pyrrolo[2,3-d]pyrimidine-5-carboxamide and uses thereof” (Chimerix, Inc., priority 2017, dated 2021).

Legend:
Assay type in all cases: physicochemical
[1] = Thermodynamic stability: stirring a mixture of Forms A-G in solvent/water, PXRD; details: for PXRD after stirring mixture of Forms A, B, C, D, E, F and G: four days at room temperature
Description: A mixture of Compound 1, Forms A, B, C, D, E, F and G was stirred in DMF/water 1:1 v/v (water activity about 0.79).
A mixture of Compound 1, Forms A, B, C, D, E, F and G was stirred in methanol/water 95:5 v/v (water activity about 0.18).

[2] = Suspension equilibration of Compound 1, Form A in organic solvents
Method: Compound 1, Form A was stirred in methanol at room temperature for six days. […] At least 90% of Form A was still present.
Additionally, Compound 1, Form A was stirred in acetonitrile at a temperature ranging between 52° C. and 75° C. for five days.

[3] = Dynamic vapor sorption (DVS); details: 25° C.; for crystal form after DVS (PXRD): 50% to 0% to 95% to 50% relative humidity; for hygroscopicity (from DVS): mass as a function of relative humidity
Description: FIG. 20A is a DVS diagram of a sample of Compound 1, Form A as a function of time and the applied change in relative humidity. Line A represents the relative weight of the sample at each relative humidity. Line B represents the applied relative humidity (i.e., the applied measurement program). FIG. 20B is a DVS diagram of a sample of Compound 1, Form A as a function of the applied relative humidity. FIG. 20A and FIG. 20B were obtained using a Sorptions Prufsystem ProUmid system using a scan rate of 5% relative humidity per hour at a temperature of 25° C.
DVS measurements were performed with an SPS11-100n “Sorptions Prufsystem” of Projekt Messtechnik”, D-89077 Ulm (Germany). About 20 to 100 mg of sample were put into an aluminum sample pan. Humidity change rates of 5% per hour were used. The applied measurement program is visualized in the figures.

SMILES | PXRD after stirring mixture of Forms A, B, C, D, E, F and G ([1]; DMF/water 1:1 v/v (water activity about 0.79)) | relative thermodynamic stability among the seven morphic forms ([1]; conclusion from both slurry experiments) | PXRD after stirring mixture of Forms A, B, C, D, E, F and G ([1]; methanol/water 95:5 v/v (water activity about 0.18)) | resulting crystalline material (PXRD) ([2]; stirred in acetonitrile between 52° C. and 75° C. for five days) | Form A still present (PXRD) ([2]; stirred in methanol at room temperature for six days) | desorption of water (DVS) ([3]; 0% R.H., 5% relative humidity per hour) [% m/m] | crystal form after DVS (PXRD) [3] | hygroscopicity (from DVS) [3]
Cc1nc(N)c2c(C(N)=O)cn([C@@H]3O[C@H](CO)[C@@H](O)[C@H]3O)c2n1 [Form A, 4-amino-7-((2R,3R,4S,5R)-3,4-dihydroxy-5-(hydroxymethyl)tetrahydrofuran-2-yl)-2-methyl-7H-pyrrolo[2,3-d]pyrimidine-5-carboxamide] | only the peaks of crystal form A | most thermodynamically stable | only the peaks of crystal form A | PXRD pattern similar to Compound 1, Form D | At least 90% | ≤ 0.1 | same pattern as the sample before DVS | non-hygroscopic
Cc1nc(N)c2c(C(N)=O)cn([C@@H]3O[C@H](CO)[C@@H](O)[C@H]3O)c2n1 [Form D, 4-amino-7-((2R,3R,4S,5R)-3,4-dihydroxy-5-(hydroxymethyl)tetrahydrofuran-2-yl)-2-methyl-7H-pyrrolo[2,3-d]pyrimidine-5-carboxamide] | – | – | – | – | – | – | remained as Form D | hygroscopic
Cc1nc(N)c2c(C(N)=O)cn([C@@H]3O[C@H](CO)[C@@H](O)[C@H]3O)c2n1 [Form B, 4-amino-7-((2R,3R,4S,5R)-3,4-dihydroxy-5-(hydroxymethyl)tetrahydrofuran-2-yl)-2-methyl-7H-pyrrolo[2,3-d]pyrimidine-5-carboxamide] | – | – | – | – | – | – | transform in to Form A | hygroscopic
Cc1nc(N)c2c(C(N)=O)cn([C@@H]3O[C@H](CO)[C@@H](O)[C@H]3O)c2n1 [Form E, 4-amino-7-((2R,3R,4S,5R)-3,4-dihydroxy-5-(hydroxymethyl)tetrahydrofuran-2-yl)-2-methyl-7H-pyrrolo[2,3-d]pyrimidine-5-carboxamide] | – | – | – | – | – | – | transformed into Form A | hygroscopic
